For one series, the system named is CYP3A4. Briefly: Cytochrome P450 induction screening assay, mRNA induction in human cryopreserved hepatocytes. Type of series: in vitro ADME. The note with it: 24 hours exposure. From the text: Induction of cytochrome P450 enzymes is associated with an increased prevalence of clinical drug-drug interactions. The clinical consequences of induction may be therapeutic failure caused by a decreased systemic exposure of the drug itself or a co-administered therapy, or toxicity as a result of increased bioactivation. Cytochrome P450 (CYP450) induction assay has been used to understand the potential drug-drug interaction liabilities in drug discovery stage. Human cryopreserved hepatocytes (Life Technologies, Carlsbad, USA) were thawed and cultured in collagen I coated 96-well plates with a density of 52,000 cells/well. After attachment, hepatocyte maintenance medium (HMM; Lonza, Switzerland) was changed after cells were pre-cultured overnight. […] Medium change was then performed and cells were exposed for 24 hours to test compounds, positive inducer compounds, or vehicle (0.1% DMSO), respectively. At the end of the compound exposure period, medium was removed and cells lysed using 100 μL/well MagNA Pure LC RNA isolation tissue lysis buffer (Roche Diagnostics AG, Rotkreuz, Switzerland). […] mRNA isolation was performed using the MagNA Pure 96 system (Roche Diagnostics AG, Rotkreuz, Switzerland) and the respective cellular RNA large volume kit (Roche Diagnostics AG, Rotkreuz, Switzerland) from thawed samples diluted 1:1 with PBS. […] The resulting cDNA was diluted with 40 μL of H2O before using for qRT-PCR. qRT-PCR was performed by using the forward and the reverse primer, the corresponding Universal Probe Library (all from Microsynth, Balgach, Switzerland) and the Taqman Fast advanced master mix (Applied Biosystems), on an ABI 7900 machine (Applied Biosystems). qRT-PCR Ct-values for the respective P450s were put into relation to the Ct-value of RN18S1 (microsynth, Balgach, Switzerland) of the same sample. Doing so, a respective Δct-value was calculated. Using the average of all Δct-values for the vehicle control samples, a ΔΔct-value was calculated for each sample (ΔΔct-value(sample)=Δct-value(sample)−average of Δct-value of all vehicle controls). […] The individual fold induction values were then averaged per treatment condition (usually n=3 biological replicates).

A short description of the next series: LYSA solubility. Type of series: physicochemical. The note with it: 0.05 M phosphate buffer, pH 6.5, aqueous buffer, thermodynamic from solid. As for the experimental part: LYSA solubility assay is used to determine the aqueous solubility of a compound. Samples were prepared in duplicate from 10 mM DMSO stock solution. […] After one night, the solutions were filtered using a microtiter filter plate. Then the filtrate and its 1/10 dilution were analyzed by HPLC-UV.

In another series the target is human TLR7 (Homo sapiens (Human), UniProt Q9NYK1). As to the kind of experiment: HEK-Blue-hTLR7 cells assay (SEAP reporter). The note with it: 20 hrs, read-out: HEK-Blue-hTLR7 (EC50 (μM)). Type of series: cell-based. The method, boiled down: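 HEK-Blue cells stably carrying human TLR7 and an NF-κB-driven SEAP reporter, preincubated 24 h, then exposed to serially diluted compound (1% DMSO final) for 20 h at 37 °C. Supernatant SEAP measured with QUANTI-Blue substrate, 2 h at 37 °C, absorbance read at 620–655 nm.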
human TLR7, sequence (Q9NYK1 27-1049): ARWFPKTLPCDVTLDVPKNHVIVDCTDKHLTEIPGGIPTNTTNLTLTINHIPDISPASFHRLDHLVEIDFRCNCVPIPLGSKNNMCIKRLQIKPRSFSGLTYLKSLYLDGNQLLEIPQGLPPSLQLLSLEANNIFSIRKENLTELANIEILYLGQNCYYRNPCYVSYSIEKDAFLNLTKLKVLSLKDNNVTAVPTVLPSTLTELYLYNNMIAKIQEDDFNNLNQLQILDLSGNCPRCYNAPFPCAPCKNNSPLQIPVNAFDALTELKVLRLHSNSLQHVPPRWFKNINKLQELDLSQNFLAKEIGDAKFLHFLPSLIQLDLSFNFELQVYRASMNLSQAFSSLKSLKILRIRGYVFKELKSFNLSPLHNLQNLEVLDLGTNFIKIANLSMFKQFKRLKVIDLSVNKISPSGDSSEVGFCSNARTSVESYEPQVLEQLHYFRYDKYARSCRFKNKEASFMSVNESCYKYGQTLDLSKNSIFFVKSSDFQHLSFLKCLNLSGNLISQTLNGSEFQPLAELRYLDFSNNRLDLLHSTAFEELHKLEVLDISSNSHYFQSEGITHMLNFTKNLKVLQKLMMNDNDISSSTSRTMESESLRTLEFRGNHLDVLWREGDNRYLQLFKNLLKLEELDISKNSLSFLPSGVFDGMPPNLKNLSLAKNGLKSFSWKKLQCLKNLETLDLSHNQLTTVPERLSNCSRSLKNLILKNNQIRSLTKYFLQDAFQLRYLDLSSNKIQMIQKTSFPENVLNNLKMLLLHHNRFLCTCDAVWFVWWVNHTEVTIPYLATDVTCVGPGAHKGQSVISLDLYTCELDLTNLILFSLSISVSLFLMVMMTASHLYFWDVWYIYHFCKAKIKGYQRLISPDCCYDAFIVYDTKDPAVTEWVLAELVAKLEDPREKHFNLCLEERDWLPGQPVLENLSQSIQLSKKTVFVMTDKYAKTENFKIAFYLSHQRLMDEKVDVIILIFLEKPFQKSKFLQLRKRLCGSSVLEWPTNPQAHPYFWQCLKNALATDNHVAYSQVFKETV

Series [1] is described as follows: Metabolic stability in human liver microsomes. In outline:
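Test compound at 1 μM with 0.5 mg/mL microsomal protein in 100 mM potassium phosphate, pH 7.4, 37 °C, 10 min preincubation, reaction started with NADPH regenerating system. Sampled at 0, 3, 6, 9, 15 and 30 min, quenched with cold ACN, remaining parent by LC-MS/MS. No-NADPH controls at 0 and 30 min.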

The conditions of series [2]: rat, IV 1 mpk, data from WO2016023511, cited from earlier work.
For a further series, the target named is human TLR8 (Homo sapiens (Human), UniProt Q9NR97). Briefly: HEK-Blue-hTLR8 cells assay and selectivity index. Type of series: cell-based. As for the experimental part: A stable HEK-Blue-hTLR8 cell line was purchased from InvivoGen (Cat.#: HEK-Blue-htlr8, San Diego, Calif., USA). These cells were designed for studying the stimulation of human TLR8 by monitoring the activation of NF-κB. […] Therefore the reporter expression was regulated by the NF-κB promoter upon stimulation of human TLR8 for 20 hrs. The cell culture supernatant SEAP reporter activity was determined using QUANTI-Blue™ kit (Cat.#: rep-qb1, Invivogen, San Diego, Ca, USA) at a wavelength of 640 nm, a detection medium that turns purple or blue in the presence of alkaline phosphatase.
human TLR8, sequence (Q9NR97 27-1041): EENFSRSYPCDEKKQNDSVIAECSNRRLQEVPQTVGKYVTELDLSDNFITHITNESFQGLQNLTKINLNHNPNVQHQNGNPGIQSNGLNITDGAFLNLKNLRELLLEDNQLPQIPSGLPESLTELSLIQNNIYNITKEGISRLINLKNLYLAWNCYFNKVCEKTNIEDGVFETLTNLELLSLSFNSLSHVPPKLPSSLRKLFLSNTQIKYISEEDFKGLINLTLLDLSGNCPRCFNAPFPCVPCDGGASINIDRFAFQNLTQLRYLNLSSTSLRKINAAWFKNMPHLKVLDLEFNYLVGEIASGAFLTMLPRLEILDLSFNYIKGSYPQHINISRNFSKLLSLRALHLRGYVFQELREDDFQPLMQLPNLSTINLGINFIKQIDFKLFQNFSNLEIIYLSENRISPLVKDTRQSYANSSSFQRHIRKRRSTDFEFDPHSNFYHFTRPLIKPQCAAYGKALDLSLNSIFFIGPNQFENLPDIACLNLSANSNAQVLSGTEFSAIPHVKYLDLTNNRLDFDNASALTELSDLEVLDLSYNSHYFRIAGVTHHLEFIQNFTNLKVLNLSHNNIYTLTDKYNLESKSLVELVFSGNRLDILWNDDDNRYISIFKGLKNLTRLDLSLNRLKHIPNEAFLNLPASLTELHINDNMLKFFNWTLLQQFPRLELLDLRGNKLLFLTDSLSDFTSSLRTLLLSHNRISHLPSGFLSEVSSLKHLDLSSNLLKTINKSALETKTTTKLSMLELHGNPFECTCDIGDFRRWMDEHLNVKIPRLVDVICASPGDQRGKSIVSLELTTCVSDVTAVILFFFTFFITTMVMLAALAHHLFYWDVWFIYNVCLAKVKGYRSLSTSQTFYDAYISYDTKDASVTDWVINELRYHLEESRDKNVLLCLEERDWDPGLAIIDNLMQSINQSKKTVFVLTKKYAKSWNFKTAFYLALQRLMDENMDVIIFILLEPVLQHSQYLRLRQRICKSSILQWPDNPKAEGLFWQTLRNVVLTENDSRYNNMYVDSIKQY
HEK-Blue-hTLR8 cells were incubated at a density of 250,000˜450,000 cells/mL in a volume of 180 μL in a 96-well plate in Dulbecco's Modified Eagle's medium (DMEM) containing 4.5 g/L glucose, 50 U/mL penicillin, […], […], 2 mM L-glutamine, 10% (V/V) heat-inactivated fetal bovine serum for 24 hrs. Then the HEK-Blue-hTLR8 cells were incubated with addition of 20 μL test compound in a serial dilution in the presence of final DMSO at 1% and perform incubation under 37° C. in a CO2 incubator for 20 hrs. Then 20 μL of the supernatant from each well was incubated with 180 μL Quanti-blue substrate solution at 37° C. for 2 hours and the absorbance was read at 620˜655 nm using a spectrophotometer. The signalling pathway that TLR8 activation leads to downstream NF-κB activation has been widely accepted, and therefore similar reporter assay was also widely used for evaluating TLR8 agonist (Tsuneyasu Kaisho and Takashi Tanaka, Trends in Immunology, Volume 29, Issue 7, July 2008, […]; Hiroaki Hemmi et al, Nature Immunology 3, 196-200 (2002)).
The ratio of TLR8 agonism activity compared to TLR7 agonism activity was defined as the selectivity index (EC50 (TLR8) value/EC50(TLR7) value) and calculated accordingly.

The conditions of series [3]: patients with chronic hepatitis B, phase Ib; cited from earlier work.

Molecules are shown by their SMILES. Values after ≈ are worked out from the molar mass of the structure shown. Where two headings read alike, the source gives them in different places.

In the case of `CCCS(=N)(=O)c1nc(N)c2[nH]c(=O)n(Cc3ccc(F)cc3)c2n1` (stereo not drawn) [Example 24, 6-Amino-9-[(4-fluorophenyl)methyl]-2-(propylsulfonimidoyl)-7H-purin-8-one], in the series with CYP3A4, the “Relative induction of Positive control (10 μM Rifampicin) (%)” value was −0.72%. This compound also registered a thermodynamic solubility in “LYSA solubility” of 12 µg/mL (≈ 32.9 µM). At human TLR7, the EC50 was determined as 0.037 µM.

With `CCCCOc1nc(N)c2c(n1)N(Cc1cccc(CN3CCCC3)c1)CC(=O)N2` [GS-9620], in series [1] (1 μM test compound, 0.5 mg/mL microsomal protein, 6.15 mL/min/kg is the limitation of assay sensitivity), the “Human Liver Microsome Clearance” value was 17.8 mL/min/kg. The “Human liver microsome clearance category” value in series [1] (categorized low/medium/high) is reported as “high (high (16.2-23.2 mL/min/kg))”. For the same compound, the “Mean plasma concentration” value in series [2] (0.083 h) is 170 nM; in series [2] (0.25 h), 102 nM; in series [2] (0.5 h), 65.4 nM; in series [2] (1 h), 48.1 nM; in series [2] (2 h), 21.6 nM; in series [2] (4 h), 13 nM. In addition, in series [2] (8 h), the “Mean plasma concentration” value is 4.17 nM. The “CO” value in series [2] is on record as 220 nM. The figures for the 50% effective concentration (EC50) at human TLR7 and on human TLR8 were 0.8 µM and 11600 nM, respectively. On human TLR8 (EC50(TLR8) value/EC50(TLR7) value), this compound displayed a Selective index of 14. Besides, the “ISG15 mRNA induction” value in series [3] is “dose-dependent ISG15 mRNA induction”. In series [3], the Safety and tolerability result is on record as “safe, well tolerated”.

The values are drawn from patent publication US9708325B2, “Sulfonimidoylpurinone compounds and derivatives for the treatment and prophylaxis of virus infection” (Hoffmann-La Roche Inc., priority 2015, dated 2017).
